From patent publication US8455475B2 (Gruenenthal GmbH, priority 2009, dated 2013) come the findings set out here.

The target of the experiment is T1, rat B1R (bradykinin receptor 1) (Rattus norvegicus, UniProt P97583).
T1 construct: expressed in transfected cells; host or cells: CHO K1 cells
T1 sequence (P97583 1-337): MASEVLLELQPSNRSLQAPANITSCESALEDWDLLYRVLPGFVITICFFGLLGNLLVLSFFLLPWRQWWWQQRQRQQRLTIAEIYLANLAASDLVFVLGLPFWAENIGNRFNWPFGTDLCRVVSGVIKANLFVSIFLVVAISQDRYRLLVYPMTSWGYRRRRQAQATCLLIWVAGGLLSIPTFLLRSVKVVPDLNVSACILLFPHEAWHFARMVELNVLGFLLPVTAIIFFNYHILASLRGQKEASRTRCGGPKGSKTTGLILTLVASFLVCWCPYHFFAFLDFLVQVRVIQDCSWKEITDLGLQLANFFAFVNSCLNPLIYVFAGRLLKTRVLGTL
The experiment in a line: FLIPR Ca2+ assay (Fluo-4) on CHO K1 cells stably transfected with the B1R gene of the rat (rB1R cells): % inhibition at 10 μM / IC50, agonist Des-Arg9-bradykinin. Type of experiment: cell-based. The note with it: CHO-K1, rat B1R. An outline of the steps:
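Stable CHO K1 lines, Fluo-4 dye, probenecid-containing buffer. Cpd 10 μM or dose range, 10–20 min, then EC80 agonist (h: Lys-Des-Arg9-BK; r: Des-Arg9-BK). Readout peak FC; % inhibition vs max; IC50 from n=2–3, N≥2.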
`Cc1cccc(Cl)c1C(=O)NC1CCc2ccc(C(=O)N3CCC4(CCN(Cc5ccc(F)cc5Cl)CC4)C3)cc21` (centres unmarked) [IND_CC-734, 2-Chloro-N-[6-[8-[(2-chloro-4-fluoro-phenyl)-methyl]-2,8-diazaspiro-[4.5]decane-2-carbonyl]-2,3-dihydro-1H-inden-1-yl]-6-methyl-benzamide]: the inhibition at 10 µM was found to be 95%.

For the compound `Cc1cccc(Cl)c1C(=O)NC1CCc2ccc(C(=O)N3CCC4(CCN(Cc5c(F)cccc5Cl)CC4)C3)cc21` (centres unmarked) [IND_CC-735, 2-Chloro-N-[6-[8-[(2-chloro-6-fluoro-phenyl)-methyl]-2,8-diazaspiro-[4.5]decane-2-carbonyl]-2,3-dihydro-1H-inden-1-yl]-6-methyl-benzamide], the inhibition at 10 µM came to 81%. Turning to `Cc1nc(CN2CCC3(CC2)CCN(C(=O)c2ccc4c(c2)C(NC(=O)c2c(F)cccc2Cl)CC4)C3)c[nH]1` (centres unmarked) [IND_CC-736, 2-Chloro-6-fluoro-N-[6-[8-[(2-methyl-1H-imidazol-4-yl)-methyl]-2,8-diazaspiro[4.5]decane-2-carbonyl]-2,3-dihydro-1H-inden-1-yl]-benzamide], the inhibition at 10 µM was found to be 93%. Regarding `Cc1c(CN2CCC3(CC2)CCN(C(=O)c2ccc4c(c2)C(NC(=O)c2c(F)cccc2Cl)CC4)C3)cnn1C` (centres unmarked) [IND_CC-737, 2-Chloro-N-[6-[8-[(1,5-dimethyl-1H-pyrazol-4-yl)-methyl]-2,8-diazaspiro-[4.5]decane-2-carbonyl]-2,3-dihydro-1H-inden-1-yl]-6-fluoro-benzamide], the inhibition at 10 µM was 55%. Turning to `Cc1noc(C)c1CN1CCC2(CC1)CCN(C(=O)c1ccc3c(c1)C(NC(=O)c1c(F)cccc1Cl)CC3)C2` (centres unmarked) [IND_CC-738, 2-Chloro-N-[6-[8-[(3,5-dimethyl-isoxazol-4-yl)-methyl]-2,8-diazaspiro-[4.5]decane-2-carbonyl]-2,3-dihydro-1H-inden-1-yl]-6-fluoro-benzamide], the inhibition at 10 µM was found to be 89%. The figure for `N#Cc1ccc(CN2CCC3(CC2)CCN(C(=O)c2ccc4c(c2)C(NC(=O)c2c(F)cccc2Cl)CC4)C3)cc1` (centres unmarked) [IND_CC-739, 2-Chloro-N-[6-[8-[(4-cyano-phenyl)-methyl]-2,8-diazaspiro[4.5]decane-2-carbonyl]-2,3-dihydro-1H-inden-1-yl]-6-fluoro-benzamide] is 83%. Take `N#Cc1ccccc1CN1CCC2(CC1)CCN(C(=O)c1ccc3c(c1)C(NC(=O)c1c(F)cccc1Cl)CC3)C2` (centres unmarked) [IND_CC-740, 2-Chloro-N-[6-[8-[(2-cyano-phenyl)-methyl]-2,8-diazaspiro[4.5]decane-2-carbonyl]-2,3-dihydro-1H-inden-1-yl]-6-fluoro-benzamide]: the inhibition at 10 µM worked out at 88%.

Take `CCn1cc(CN2CCC3(CC2)CCN(C(=O)c2ccc4c(c2)C(NC(=O)c2cccc(Cl)c2Cl)CC4)C3)c(C)n1` (centres unmarked) [IND_CC-742, 2,3-Dichloro-N-[6-[8-[(1-ethyl-3-methyl-1H-pyrazol-4-yl)-methyl]-2,8-diazaspiro[4.5]decane-2-carbonyl]-2,3-dihydro-1H-inden-1-yl]-benzamide]: the inhibition at 10 µM was found to be 50%. Regarding `CN(C)c1ncc(CN2CCC3(CC2)CCN(C(=O)c2ccc4c(c2)C(NC(=O)c2cccc(Cl)c2Cl)CC4)C3)cn1` (centres unmarked) [IND_CC-743, 2,3-Dichloro-N-[6-[8-[(2-dimethylamino-pyrimidin-5-yl)-methyl]-2,8-diazaspiro[4.5]decane-2-carbonyl]-2,3-dihydro-1H-inden-1-yl]-benzamide], the inhibition at 10 µM came out at 80%.

`O=C(NC1CCc2ccc(C(=O)N3CCC4(CCN(Cc5ccc6ncccc6c5)CC4)C3)cc21)c1cccc(Cl)c1Cl` (centres unmarked) [IND_CC-744, 2,3-Dichloro-N-[6-[8-(quinolin-6-yl-methyl)-2,8-diazaspiro[4.5]decane-2-carbonyl]-2,3-dihydro-1H-inden-1-yl]-benzamide]: the inhibition at 10 µM is 71%. Take `O=C(NC1CCc2ccc(C(=O)N3CCC4(CCN(Cc5ccc6nccnc6c5)CC4)C3)cc21)c1cccc(Cl)c1Cl` (centres unmarked) [IND_CC-745, 2,3-Dichloro-N-[6-[8-(quinoxalin-6-yl-methyl)-2,8-diazaspiro[4.5]decane-2-carbonyl]-2,3-dihydro-1H-inden-1-yl]-benzamide]: the inhibition at 10 µM amounted to 70%.

`Cn1nnc2cc(CN3CCC4(CC3)CCN(C(=O)c3ccc5c(c3)C(NC(=O)c3cccc(Cl)c3Cl)CC5)C4)ccc21` (centres unmarked) [IND_CC-746, 2,3-Dichloro-N-[6-[8-[(1-methyl-1H-benzotriazol-5-yl)-methyl]-2,8-diazaspiro[4.5]decane-2-carbonyl]-2,3-dihydro-1H-inden-1-yl]-benzamide]: the inhibition at 10 µM worked out at 78%. The figure for `CC(C)CN1CCC2(CC1)CCN(C(=O)c1ccc3c(c1)C(NC(=O)c1cccc(Cl)c1Cl)CC3)C2` (centres unmarked) [IND_CC-747, 2,3-Dichloro-N-[6-[8-(2-methyl-propyl)-2,8-diazaspiro[4.5]decane-2-carbonyl]-2,3-dihydro-1H-inden-1-yl]-benzamide] is 59%; for `CCC(CC)CN1CCC2(CC1)CCN(C(=O)c1ccc3c(c1)C(NC(=O)c1cccc(Cl)c1Cl)CC3)C2` (centres unmarked) [IND_CC-748, 2,3-Dichloro-N-[6-[8-(2-ethyl-butyl)-2,8-diazaspiro[4.5]decane-2-carbonyl]-2,3-dihydro-1H-inden-1-yl]-benzamide] it is 70%. The figure for `O=C(NC1CCc2ccc(C(=O)N3CCC4(CCN(CCc5ccccc5)CC4)C3)cc21)c1cccc(Cl)c1Cl` (centres unmarked) [IND_CC-749, 2,3-Dichloro-N-[6-(8-phenethyl-2,8-diazaspiro[4.5]decane-2-carbonyl)-2,3-dihydro-1H-inden-1-yl]-benzamide] is 70%; for `O=C(NC1CCc2ccc(C(=O)N3CCC4(CCN(CCCc5cccc(F)c5)CC4)C3)cc21)c1cccc(Cl)c1Cl` (centres unmarked) [IND_CC-750, 2,3-Dichloro-N-[6-[8-[3-(3-fluorophenyl)-propyl]-2,8-diazaspiro[4.5]decane-2-carbonyl]-2,3-dihydro-1H-inden-1-yl]-benzamide] it is 99%; for `O=C(NC1CCc2ccc(C(=O)N3CCC4(CCN(CCCc5ccc(F)cc5)CC4)C3)cc21)c1cccc(Cl)c1Cl` (centres unmarked) [IND_CC-751, 2,3-Dichloro-N-[6-[8-[3-(4-fluorophenyl)-propyl]-2,8-diazaspiro[4.5]decane-2-carbonyl]-2,3-dihydro-1H-inden-1-yl]-benzamide] it is 98%. `CCn1cc(CN2CCC3(CC2)CCN(C(=O)c2ccc4c(c2)C(NC(=O)c2cccc(Cl)c2Cl)CC4)CC3)c(C)n1` (centres unmarked) [IND_CC-752, 2,3-Dichloro-N-[6-[9-[(1-ethyl-3-methyl-1H-pyrazol-4-yl)-methyl]-3,9-diazaspiro[5.5]undecane-3-carbonyl]-2,3-dihydro-1H-inden-1-yl]-benzamide]: the inhibition at 10 µM is 69%. Turning to `CN(C)c1ncc(CN2CCC3(CC2)CCN(C(=O)c2ccc4c(c2)C(NC(=O)c2cccc(Cl)c2Cl)CC4)CC3)cn1` (centres unmarked) [IND_CC-753, 2,3-Dichloro-N-[6-[9-[(2-dimethylamino-pyrimidin-5-yl)-methyl]-3,9-diazaspiro[5.5]undecane-3-carbonyl]-2,3-dihydro-1H-inden-1-yl]-benzamide], the inhibition at 10 µM came out at 90%. Take `O=C(NC1CCc2ccc(C(=O)N3CCC4(CCN(Cc5ccc6ncccc6c5)CC4)CC3)cc21)c1cccc(Cl)c1Cl` (centres unmarked) [IND_CC-754, 2,3-Dichloro-N-[6-[9-(quinolin-6-yl-methyl)-3,9-diazaspiro[5.5]undecane-3-carbonyl]-2,3-dihydro-1H-inden-1-yl]-benzamide]: the inhibition at 10 µM is 87%. Regarding `O=C(NC1CCc2ccc(C(=O)N3CCC4(CCN(Cc5ccc6nccnc6c5)CC4)CC3)cc21)c1cccc(Cl)c1Cl` (centres unmarked) [IND_CC-755, 2,3-Dichloro-N-[6-[9-(quinoxalin-6-yl-methyl)-3,9-diazaspiro[5.5]undecane-3-carbonyl]-2,3-dihydro-1H-inden-1-yl]-benzamide], the inhibition at 10 µM stood at 92%.

`Cn1nnc2cc(CN3CCC4(CC3)CCN(C(=O)c3ccc5c(c3)C(NC(=O)c3cccc(Cl)c3Cl)CC5)CC4)ccc21` (centres unmarked) [IND_CC-756, 2,3-Dichloro-N-[6-[9-[(1-methyl-1H-benzotriazol-5-yl)-methyl]-3,9-diazaspiro[5.5]undecane-3-carbonyl]-2,3-dihydro-1H-inden-1-yl]-benzamide]: the inhibition at 10 µM was found to be 104%. The figure for `CC(C)CN1CCC2(CC1)CCN(C(=O)c1ccc3c(c1)C(NC(=O)c1cccc(Cl)c1Cl)CC3)CC2` (centres unmarked) [IND_CC-757, 2,3-Dichloro-N-[6-[9-(2-methyl-propyl)-3,9-diazaspiro[5.5]undecane-3-carbonyl]-2,3-dihydro-1H-inden-1-yl]-benzamide] is 52%; for `O=C(NC1CCc2ccc(C(=O)N3CCC4(CCN(CCc5ccccc5)CC4)CC3)cc21)c1cccc(Cl)c1Cl` (centres unmarked) [IND_CC-758, 2,3-Dichloro-N-[6-(9-phenethyl-3,9-diazaspiro[5.5]undecane-3-carbonyl)-2,3-dihydro-1H-inden-1-yl]-benzamide] it is 86%. Regarding `O=C(NC1CCc2ccc(C(=O)N3CCC4(CCN(CCCc5cccc(F)c5)CC4)CC3)cc21)c1cccc(Cl)c1Cl` (centres unmarked) [IND_CC-759, 2,3-Dichloro-N-[6-[9-[3-(3-fluorophenyl)-propyl]-3,9-diazaspiro[5.5]undecane-3-carbonyl]-2,3-dihydro-1H-inden-1-yl]-benzamide], the inhibition at 10 µM stood at 78%. Consider `O=C(NC1CCc2ccc(C(=O)N3CCC4(CCN(CCCc5ccc(F)cc5)CC4)CC3)cc21)c1cccc(Cl)c1Cl` (centres unmarked) [IND_CC-760, 2,3-Dichloro-N-[6-[9-[3-(4-fluorophenyl)-propyl]-3,9-diazaspiro[5.5]undecane-3-carbonyl]-2,3-dihydro-1H-inden-1-yl]-benzamide], for which the inhibition at 10 µM is 93%.

Usually inhibition stands for the relative decrease from the control value, in per cent.
